Results from patent US20090106856A1, “Selection System for Wheat” (BASF PLANT SCIENCE GMBH, priority 2005, published 2009).

System: non-transgenic wheat plants
Assay: D-serine as a nitrogen source in hydroponics
Format: in vivo, Triticum aestivum
Experimental: T1 and T2 transgenic progenies were grown on hydroponics system where hydroponics solution (Gamborg and Wetter, 1975) was modified by replacing nitrogen with D-serine in five different concentrations (20, 30, 50 70 and 100 mM). Transgenic progenies and control seedlings were grown also on standard hydroponics solution as controls. The dry weigh of all 14 days old seedlings was measured.
Catabolic products of D-serine deaminase are ammonium and pyruvate—key compounds in plant metabolism. Theoretically, transgenic plants equipped with a functional dsdA gene are expected to utilize D-serine as a nitrogen source. We investigated this phenomenon in a hydroponic growth system by exchanging the nitrogen supply with D-serine. T2 progenies representing several independent transgenic events were subjected to two sets of hydroponic experiments.
The first hydroponics experiments were performed with plants from three independent transgenic lines 2256, 2258 and 2264 carrying the dsdA and ahas selectable marker genes and a range of D-serine concentrations (FIG. 15 I). […] Statistically significant differences between controls and transgenic plants on corresponding concentrations of D-serine were detected. Two of these transgenic lines were inhibited in all tested D-serine concentrations. […]

## N[C@H](CO)C(=O)O [D-serine]
Hydroponics solution supplemented with 30, 50 and 70 mM
  growth of non-transgenic control plants in hydroponics: not able to grow
Nitrogen replaced by D-serine, all tested concentrations (20, 30, 50, 70 and 100 mM)
  growth of non-transgenic plants in hydroponics: fully inhibited
